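Grown in 96-well plates, cells were treated for 48 hours with each compound at five concentrations. Insufficient inhibition: endpoint recorded as highest concentration tested. GI50 = concentration required for 50% inhibition of growth. The concentration for full growth arrest is given as TGI.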 Where only a bound is given, the exact number is not on record here.

Some test systems named below: A549 NSCLC; OVCAR-3 ovarian; NCI-H226 lung; SK-MEL-5 melanoma; IGROV1 ovarian; OVCAR-4 ovarian; MDA-MB-435; MCF7 breast; SR leukemia.
Common to all, as to assay: NCI anticancer screen, dose series, 48 h

Regarding `CC(C)(C)N=C1CC(C)(C)c2ccccc2C(=Nc2ccccc2)S1`, the TGI in the assay on A549 NSCLC was more than 100 µM; in the assay on OVCAR-3 ovarian it was more than 100 µM; with NCI-H226 lung it was more than 100 µM; with SK-MEL-5 melanoma it was 59.2 µM; with IGROV1 ovarian it was more than 100 µM.
For the molecule `c1ccc(CCN2CCCCCC2)nc1`, the TGI in the assay with A549 NSCLC, with OVCAR-3 ovarian, with NCI-H226 lung, with SK-MEL-5 melanoma, with OVCAR-4 ovarian and in the assay on IGROV1 ovarian was more than 100 µM throughout. Further, the TGI in the assay on MDA-MB-435 and in the assay on MCF7 breast was more than 100 µM in each case.
With `Nc1nc(Cl)cc(N=Nc2ccccc2)n1`, the TGI was more than 100 µM with A549 NSCLC; 30.3 µM in the assay on OVCAR-3 ovarian; more than 100 µM in the assay with NCI-H226 lung; 40 µM with SK-MEL-5 melanoma; 51.3 µM in the assay with IGROV1 ovarian; more than 100 µM in the assay on SR leukemia. Further, the TGI in the assay with MDA-MB-435 and with MCF7 breast was more than 100 µM in each case.
On to `O=C(Nn1c(-c2ccccc2)nc2ccccc2c1=O)c1ccccn1`, for which the TGI with A549 NSCLC, in the assay on OVCAR-3 ovarian, with SK-MEL-5 melanoma, in the assay with OVCAR-4 ovarian, in the assay on IGROV1 ovarian and in the assay on SR leukemia was more than 100 µM each time. Further, the TGI in the assay on MDA-MB-435 is more than 100 µM.
For the molecule `COc1ccc(/C=C/c2cc(O)cc(OC)c2)cc1`, the TGI with A549 NSCLC, with OVCAR-3 ovarian, in the assay with NCI-H226 lung, with SK-MEL-5 melanoma, with OVCAR-4 ovarian and with IGROV1 ovarian was more than 100 µM each time. Besides, the TGI in the assay with SR leukemia, in the assay with MDA-MB-435 and in the assay with MCF7 breast was more than 100 µM throughout.
With `O=C(/C=C/c1ccc(-c2ccccc2[N+](=O)[O-])o1)NCc1ccc(C(=O)NCCc2ccccc2)cc1`, the TGI in the assay with A549 NSCLC, in the assay on OVCAR-3 ovarian, in the assay on NCI-H226 lung, with SK-MEL-5 melanoma, in the assay with OVCAR-4 ovarian and in the assay with IGROV1 ovarian was more than 100 µM each time. The TGI with SR leukemia, with MDA-MB-435 and in the assay on MCF7 breast was more than 100 µM throughout.
For the molecule `COc1cccc(NC(=O)CSc2nnc(-c3ccc(N=Cc4ccc(Cl)cc4)cc3)o2)c1`, the TGI with A549 NSCLC was 69.6 µM; with NCI-H226 lung, 43.4 µM; in the assay on SK-MEL-5 melanoma it was 34.6 µM; in the assay with OVCAR-4 ovarian, more than 100 µM; in the assay on SR leukemia, more than 100 µM.
On to `O=C1c2[nH]cc(CN3CCNCC3)c2C(=O)c2c1c(O)c1ccccc1c2O`, for which the GI50 in the assay on OVCAR-3 ovarian is 1.77 µM; in the assay with NCI-H226 lung, 12.2 µM; with SK-MEL-5 melanoma it was 1.64 µM; in the assay on SR leukemia, 6.09 µM; in the assay with MDA-MB-435, 2.54 µM; in the assay with MCF7 breast, 32.9 µM. Further, the TGI was 4.05 µM in the assay with OVCAR-3 ovarian; 40.7 µM in the assay on NCI-H226 lung; 3.14 µM in the assay with SK-MEL-5 melanoma; more than 100 µM with SR leukemia; 4.59 µM in the assay on MDA-MB-435; more than 100 µM in the assay with MCF7 breast.
Turning to `COc1cc2cc(C(=O)N3CC(CCl)c4c3cc(N)c3ccccc43)[nH]c2cc1OCCN(C)C` (configuration not stated), the TGI was 6 µM in the assay with A549 NSCLC; 0.0209 µM with OVCAR-3 ovarian; 0.0224 µM in the assay with NCI-H226 lung; 0.00522 µM in the assay on IGROV1 ovarian; less than 0.005 µM with MDA-MB-435; 6.52 µM with MCF7 breast.
As for `CN1CCn2c(Br)ccc2C1=O`, the TGI with A549 NSCLC, in the assay on OVCAR-3 ovarian, in the assay on NCI-H226 lung, with OVCAR-4 ovarian, in the assay on IGROV1 ovarian and in the assay with SR leukemia was more than 100 µM each time.
In the case of `O=S1(=O)NNC(=NCc2ccc(Cl)cc2)c2ccccc21`, the TGI in the assay with A549 NSCLC, in the assay with OVCAR-3 ovarian, with NCI-H226 lung, in the assay on SK-MEL-5 melanoma, in the assay on OVCAR-4 ovarian and in the assay with IGROV1 ovarian was more than 100 µM throughout.
For `COc1cc([C@@H]2c3cc4c(cc3[C@@H](NC(=O)c3ccc(N)cc3)C3COC(=O)[C@@H]32)OCO4)cc(OC)c1O` (some centres not stated), the TGI in the assay with A549 NSCLC is 12.8 µM; in the assay with OVCAR-3 ovarian, 30.4 µM; in the assay on NCI-H226 lung it was 6.91 µM; in the assay with SK-MEL-5 melanoma it was 21.6 µM; with OVCAR-4 ovarian it was more than 100 µM; in the assay with IGROV1 ovarian, 20.2 µM.
For the molecule `O=c1[nH]c(=O)n(C2OC(COP(=O)(O)OP(=O)(O)O)C(O)C2O)cc1F` (configuration not stated), the TGI with A549 NSCLC is more than 41.4 µM; with OVCAR-3 ovarian it was more than 50 µM; in the assay on NCI-H226 lung it was 28.6 µM; in the assay with SK-MEL-5 melanoma it was more than 50 µM; in the assay with OVCAR-4 ovarian it was more than 26.3 µM; with IGROV1 ovarian, more than 50 µM. Also, the TGI in the assay on SR leukemia is more than 50 µM.
For the molecule `CCCCc1c2c(nc3c1CCc1cc4c(nc1-3)-c1nc3c(c(CCCC)c1CC4)CCC/C3=C\c1ccccc1)/C(=C/c1ccccc1)CCC2`, the TGI with A549 NSCLC, in the assay with OVCAR-3 ovarian, in the assay with NCI-H226 lung, in the assay on SK-MEL-5 melanoma, in the assay on IGROV1 ovarian and in the assay with SR leukemia was more than 100 µM throughout.
For `CC1=CC(O)C(O)C2(C)C1CC1OC(=O)C(O)C3C(C)C(O)C4(O)OCC13C42` (configuration not stated), the TGI came out at 387 µM with A549 NSCLC; 121 µM in the assay with OVCAR-3 ovarian; 243 µM in the assay on NCI-H226 lung; 142 µM with SK-MEL-5 melanoma; 476 µM in the assay on OVCAR-4 ovarian; 224 µM in the assay on IGROV1 ovarian. For the same molecule, the TGI in the assay on MCF7 breast was determined as 464 µM.
With `O=C(c1ccccc1)c1c(C(F)(F)F)n([O-])c2ccccc2[n+]1=O`, the TGI was determined as 1.41 µM in the assay with OVCAR-3 ovarian; 1.11 µM in the assay on OVCAR-4 ovarian; 0.489 µM in the assay with IGROV1 ovarian; 0.413 µM with SR leukemia; 5.24 µM in the assay with MCF7 breast.
Turning to `Cc1cccc(NC(=O)C(=O)C2C(=O)NC(=O)NC2=O)c1C`, the TGI in the assay on A549 NSCLC, in the assay with OVCAR-3 ovarian, in the assay on NCI-H226 lung, with SK-MEL-5 melanoma, with OVCAR-4 ovarian and in the assay on IGROV1 ovarian was more than 100 µM throughout. Besides, the TGI in the assay with SR leukemia is more than 100 µM.
For the molecule `N#Cc1c(NC(=O)c2ccccc2)sc2c1CCC(=O)C2`, the GI50 in the assay with A549 NSCLC is 6.7 µM; in the assay with OVCAR-3 ovarian it was 1.04 µM; in the assay with NCI-H226 lung, 2.75 µM; in the assay on SK-MEL-5 melanoma it was 1.65 µM; in the assay on OVCAR-4 ovarian it was 0.806 µM; in the assay on IGROV1 ovarian it was 1.59 µM. The figures for the GI50 in the assay with MDA-MB-435 and in the assay on MCF7 breast were 0.594 µM and 0.64 µM, respectively. Also, the TGI is more than 100 µM in the assay with A549 NSCLC; 2.43 µM with OVCAR-3 ovarian; 12.1 µM in the assay on NCI-H226 lung; 3.22 µM in the assay with SK-MEL-5 melanoma; 2.49 µM in the assay on OVCAR-4 ovarian; 11 µM in the assay on IGROV1 ovarian. Moreover, the TGI in the assay with MDA-MB-435 came out at 3.6 µM; with MCF7 breast, 7.83 µM.
Turning to `O=C(N/N=C(/c1nc2ccc(Cl)cc2[nH]c1=O)C(O)c1ccc(Cl)cc1Cl)c1ccncc1` (configuration not stated), the TGI with A549 NSCLC, in the assay with OVCAR-3 ovarian, with NCI-H226 lung, in the assay on SK-MEL-5 melanoma and in the assay with IGROV1 ovarian was more than 100 µM each time.
In the case of `CCOC(=O)c1ccc2nc(NC(=O)COC(=O)CSc3nc(C)cc(C)n3)sc2c1`, the TGI is more than 100 µM in the assay on A549 NSCLC; 91.5 µM in the assay with OVCAR-3 ovarian; more than 100 µM with SK-MEL-5 melanoma; more than 100 µM in the assay on OVCAR-4 ovarian; more than 100 µM with IGROV1 ovarian; more than 100 µM with SR leukemia. In addition, the TGI in the assay on MDA-MB-435 and with MCF7 breast was more than 100 µM each time.
Consider `COc1cc(C2C3=C(CCC3=O)Oc3cc4c(cc32)OCO4)cc(OC)c1OC` (configuration not stated), for which the TGI in the assay with A549 NSCLC is more than 100 µM; with OVCAR-3 ovarian, 0.381 µM; in the assay on SK-MEL-5 melanoma, 15.2 µM; with OVCAR-4 ovarian, more than 100 µM; with IGROV1 ovarian it was more than 100 µM.
For the molecule `COc1ccc(/C=C2\Cc3ccccc3C2=O)cc1OC`, the TGI in the assay on A549 NSCLC, with OVCAR-3 ovarian, with SK-MEL-5 melanoma, with OVCAR-4 ovarian and in the assay on IGROV1 ovarian was more than 100 µM each time.
Regarding `NC(Cc1cc(I)c(O)c(I)c1)C(=O)O` (configuration not stated), the TGI in the assay with A549 NSCLC is more than 500 µM; in the assay with OVCAR-3 ovarian it was more than 500 µM; in the assay on NCI-H226 lung, more than 500 µM; in the assay with SK-MEL-5 melanoma it was more than 500 µM; in the assay on OVCAR-4 ovarian, 332 µM; in the assay on IGROV1 ovarian, more than 500 µM. The molecule also showed a TGI in the assay with MCF7 breast of more than 500 µM.
For the molecule `Cc1nc(C)c(C(=O)Nc2cccc3c2C(=O)NC3=O)cc1C(=O)Nc1cccc2c1C(=O)NC2=O`, the TGI in the assay on A549 NSCLC, in the assay with OVCAR-3 ovarian, with NCI-H226 lung, in the assay on SK-MEL-5 melanoma, in the assay with OVCAR-4 ovarian and in the assay on IGROV1 ovarian was more than 100 µM each time. This molecule gave a TGI with SR leukemia of more than 100 µM.
For `CC1(O)C=CC2CCC1C2O` (configuration not stated), the TGI in the assay with A549 NSCLC, in the assay with OVCAR-3 ovarian, with NCI-H226 lung, in the assay with SK-MEL-5 melanoma, in the assay with OVCAR-4 ovarian and in the assay with IGROV1 ovarian was more than 100 µM each time. In addition, the TGI in the assay on SR leukemia is 50.2 µM.
Turning to `CC1(C)COC(c2cccc(C3=NC(C)(C)CO3)c2Br)=N1`, the TGI with A549 NSCLC, in the assay with NCI-H226 lung, in the assay on SK-MEL-5 melanoma, in the assay with OVCAR-4 ovarian, in the assay with IGROV1 ovarian and with SR leukemia was more than 100 µM in each case. Besides, the TGI with MDA-MB-435 and with MCF7 breast was more than 100 µM throughout.
